Laboratory results: EP4703359A1 (Shanghai Simr Biotechnology Co., Ltd., priority 2023, dated 2024)
Read-outs that look alike come from different tables or passages of the source.

Tests used:
α2-GABAA receptor [1] = biological target: T1, α2-GABAA receptor (Homo sapiens, UniProt P18507+P47869); assay: Whole-cell patch-clamp electrophysiology, positive allosteric modulatory activity in α2-GABAAR-HEK293 cells; format: cell-based; details: compound 100 nM, GABA 0.10 to 0.11 µM (approximately EC7-8), normalized to reference compound CVL-865 (= 100%); for Emax at 0.1 µM: read-out: α2-GABAAR Positive allosteric modulatory activity
T1 construct: expressed in transfected cells
Summary of the method: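 HEK293 cells stably co-expressing α2β3γ2 GABAA receptor, whole-cell patch clamp at -60 mV. Compounds at 100 nM final applied with GABA 0.10–0.11 µM (~EC7-8) after GABA-only current stabilized. […]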

α2-GABAA receptor [2] = biological target: T1, α2-GABAA receptor; assay: Radioactive ligand (3H-flunitrazepam) competitive binding assay, BZD site of membrane proteins of α2-GABAAR-HEK293 cells
Excerpt: The α subunit, β subunit, and γ subunit are indispensable for forming a fully functional GABAA receptor. In this example, HEK293 cells stably expressing α2-GABAA receptors (α2-GABAAR) were constructed and screened respectively via liposome transfection (Felgner, P.L., et al. Proceedings of the National Academy of Sciences, 1987, 84: 7413-7417). The α2-GABAAR-HEK293 cell model co-expresses the α2 subunit (protein sequence referenced under GenBank accession number: NM_000807.4), β3 subunit (protein sequence referenced under GenBank accession number: NM_000814.5), and γ2 subunit (protein sequence referenced under GenBank accession number: NM_000816.3).
The above cell lines were subcultured. α2-GABAAR-HEK293 cells were amplified for testing the affinity of compounds to the benzodiazepine (BZD) site of GABAA receptors. Some of the α2-GABAAR-HEK293 cells in suspension during subculturing were plated on glass slides pre-treated with Poly-D-Lysine for electrophysiological testing (method reference: Patent CN 107344936 A, paragraph 0586).
The affinity of the compound for the α2-GABAA receptor was determined by competing with ^3H-flunitrazepam (isotope ^3H-labeled flunitrazepam) for binding to the BZD site of membrane proteins in HEK293 cells stably expressing human α2-GABAAR.
Membrane preparation: Cells were suspended in 50 mM Tris-HCl buffer (pH=7.4), homogenized on ice using a homogenizer for 20 seconds with 10 repetitions, and centrifuged at 4°C, 1000g for 10 minutes. The supernatant was collected, and the above steps were repeated. The supernatant was centrifuged at 4°C (33,800 × g; Thermo, rotor: A27-8x50) for 60 minutes, and the pellet was resuspended in Tris buffer (50 mM Tris-HCl, 10 mM MgCl2, 0.5 mM EDTA, 10% glycerol). The protein concentration was determined using the bicinchoninic acid (BCA) protein assay based on the copper ion reduction method (BCA kit purchased from Pierce (Annoron)). Aliquots of 1 mL were prepared and stored at -80°C.
Radioactive ligand competitive binding assay: This assay was conducted in a 200 µL system (96-well plate), containing 100 µL of cell membrane. The concentration of ^3H-flunitrazepam was 1 nM, and the concentration of the test compound ranged from […]. Flumazenil was used as a control. The low signal control well (Low Control, LC) was added with 1 µL of 2 mM flumazenil (final concentration 10 µM), while the high signal control well (High Control, HC) was added with 1 µL of dimethyl sulfoxide. The final concentration of the target membrane protein was 5 µg/well. All test compound stock solutions were prepared as 10 mM solutions in dimethyl sulfoxide. The working concentration of the samples was prepared by diluting all samples to 0.2 mM with dimethyl sulfoxide, followed by a 4-fold serial dilution to obtain a total of 8 concentration gradients. The 96-well plate was sealed with sealing film and then incubated on a shaker at room temperature for 1 hour. The GF/C filter plate was also soaked with a soaking buffer (0.3% PEI (polyethyleneimine, purchased from: Sigma-Aldrich, model: P314), stored at 4°C) for at least 0.5 hours. After the incubation was completed, the mixture was collected onto a GF/C filter plate using a cell harvester and washed four times with wash buffer (50 mM Tris-HCl, pH 7.4, stored at 4°C). After drying in a 50°C oven for 1 hour, the dried GF/C filter plate was sealed at the bottom with a film. The residual radioactivity on the filter membrane was detected using liquid scintillation counting. Each well was filled with 50 µL of scintillation fluid and sealed. Readings were taken using a Microbeta^2 (microplate counter, purchased from PerkinElmer, model: CNLL0153). The inhibitory activity of the test sample on the binding of ^3H-flunitrazepam to GABAA receptor membrane protein was calculated. […]

[3] = competition with 1 nM 3H-flunitrazepam; HEK293 membranes expressing α2, β3, γ2 subunits; Ki calculated from IC50; read-out: α2 Ki

Row | SMILES | Emax at 0.1 µM (α2-GABAA receptor [1]) | Ki (α2-GABAA receptor [2]; [3]) | α2-GABAAR Positive allosteric modulatory activity (α2-GABAA receptor [1]) | Ki (α2-GABAA receptor [2]; read-out: α2 Ki; competition with 1 nM 3H-flunitrazepam; HEK293 membranes expressing α2, β3, γ2 subunits; Ki calculated from IC50)
1 | COc1ccc(C)cc1-c1cccn2c(N)c(C(=O)NC3CC(C)C3)nc12 (stereo not drawn) [Example 33, 3-Amino-8-(2-methoxy-5-methylphenyl)-N-(3-methylcyclobutyl)imidazo[1,2-a]pyridine-2-carboxamide] | 155% | 15.5 nM |  | 
2 | CCCNC(=O)c1nc2c(-c3cccc(C#N)c3)cccn2c1N [Example 35, 3-Amino-8-(3-cyanophenyl)-N-propylimidazo[1,2-a]pyridine-2-carboxamide] | 108% | 13.3 nM |  | 
3 | CCCNC(=O)c1nc2c(-c3cccc(CC#N)c3)cccn2c1N [Example 36, 3-amino-8-(3-(cyanomethyl)phenyl)-N-propylimidazo[1,2-a]pyridine-2-carboxamide] | 181% | 21.2 nM |  | 
4 | CCCNC(=O)c1nc2c(-c3cccc(CCC#N)c3)cccn2c1N [Example 37, 3-Amino-8-(3-(2-cyanoethyl)phenyl)-N-propylimidazo[1,2-a]pyridine-2-carboxamide] | 105% | 33.6 nM |  | 
5 | CCCNC(=O)c1nc2c(-c3cccc(F)c3)cccn2c1N [Example 46, 3-Amino-8-(3-fluorophenyl)-N-propylimidazo[1,2-a]pyridine-2-carboxamide] | 50% | 18.7 nM |  | 
6 | CCCNC(=O)c1nc2c(-c3cccc(C)c3)cccn2c1N [Example 48, 3-Amino-N-propyl-8-(3-methylphenyl)imidazo[1,2-a]pyridine-2-carboxamide] | 71% | 14.2 nM |  | 
7 | CCCNC(=O)c1nc2c(-c3cc(C)ccc3OC)cccn2c1N [Example 49, 3-Amino-8-(2-methoxy-5-methylphenyl)-N-propylimidazo[1,2-a]pyridine-2-carboxamide] | 156% | 19.2 nM |  | 
8 | CCCNC(=O)c1nc2c(-c3cc(F)ccc3OC)cccn2c1N [Example 51] |  |  | 121% | 26 nM
9 | CCCNC(=O)c1nc2c(-c3ccc(F)cc3OC)cccn2c1N [Example 53, 3-Amino-8-(4-fluoro-2-methoxyphenyl)-N-propylimidazo[1,2-a]pyridine-2-carboxamide] | 92% | 57 nM |  | 
10 | CCCNC(=O)c1nc2c(-c3cc(F)cc(C#N)c3)cccn2c1N [Example 55, 3-Amino-8-(3-cyano-5-fluorophenyl)-N-propylimidazo[1,2-a]pyridine-2-carboxamide] | 89% | 27.8 nM |  | 
11 | CCCNC(=O)c1nc2c(-c3ccc(F)c(C#N)c3)cccn2c1N [Example 56, 3-Amino-8-(3-cyano-4-fluorophenyl)-N-propylimidazo[1,2-a]pyridine-2-carboxamide] | 95% | 38.2 nM |  | 
12 | CCCNC(=O)c1nc2c(-c3cc(C(F)(F)F)ccc3OC)cccn2c1N [Example 58, 3-Amino-8-(2-methoxy-5-(trifluoromethyl)phenyl)-N-propylimidazo[1,2-a]pyridine-2-carboxamide] | 103% | 34.5 nM |  | 
13 | CCCNC(=O)c1nc2c(-c3ccccc3OC)cccn2c1N [Example 61, 3-Amino-8-(2-methoxyphenyl)-N-propylimidazo[1,2-a]pyridine-2-carboxamide] | 91% | 39.4 nM |  | 
14 | CCCNC(=O)c1nc2c(-c3cc(C(F)F)ccc3OC)cccn2c1N [Example 67, 3-Amino-8-(5-(difluoromethyl)-2-methoxyphenyl)-N-propylimidazo[1,2-a]pyridine-2-carboxamide] | 138% | 15 nM |  | 
15 | CCCNC(=O)c1nc2c(-c3cc(C4CC4)ccc3OC)cccn2c1N [Example 68, 3-Amino-8-(5-cyclopropyl-2-methoxyphenyl)-N-propylimidazo[1,2-a]pyridine-2-carboxamide] | 92% | 51 nM |  | 
16 | CCCNC(=O)c1nc2c(-c3cc(OC)ccc3OC)cccn2c1N [Example 69, 3-Amino-8-(2,5-dimethoxyphenyl)-N-propylimidazo[1,2-a]pyridine-2-carboxamide] | 70% | 30.8 nM |  | 
17 | CCCNC(=O)c1nc2c(-c3c(Cl)cccc3OC)cccn2c1N [Example 72, 3-Amino-8-(2-chloro-6-methoxyphenyl)-N-propylimidazo[1,2-a]pyridine-2-carboxamide] | 44% | 95 nM |  | 

Now from value to compound, other results behind:

Row | Emax at 0.1 µM (α2-GABAA receptor [1]) | Ki (α2-GABAA receptor [2]; [3]) | SMILES | α2-GABAAR Positive allosteric modulatory activity (α2-GABAA receptor [1]) | Ki (α2-GABAA receptor [2]; read-out: α2 Ki; competition with 1 nM 3H-flunitrazepam; HEK293 membranes expressing α2, β3, γ2 subunits; Ki calculated from IC50)
18 | 50% | 7.33 nM | COc1ccc(F)c(F)c1-c1cccn2c(N)c(C(=O)NC3CC(C)C3)nc12 (stereo not drawn) [Example 32, 3-Amino-8-(2,3-difluoro-6-methoxyphenyl)-N-(3-methylcyclobutyl)imidazo[1,2-a]pyridine-2-carboxamide] |  | 
19 | 101% | 5.07 nM | COc1ccc(C#N)cc1-c1cccn2c(N)c(C(=O)NC3CC(C)C3)nc12 (stereo not drawn) [Example 34, 3-Amino-8-(5-cyano-2-methoxyphenyl)-N-(3-methylcyclobutyl)imidazo[1,2-a]pyridine-2-carboxamide] |  | 
20 | 104% | 3.95 nM | CCCNC(=O)c1nc2c(-c3cc(C)ccc3F)cccn2c1N [Example 50, 3-Amino-8-(2-fluoro-5-methylphenyl)-N-propylimidazo[1,2-a]pyridine-2-carboxamide] |  | 
21 | 63% | 11.2 nM | CCCNC(=O)c1nc2c(-c3cc(F)ccc3F)cccn2c1N [Example 52, 3-Amino-8-(2,5-difluorophenyl)-N-propylimidazo[1,2-a]pyridine-2-carboxamide] |  | 
22 | 167% | 3.32 nM | CCCNC(=O)c1nc2c(-c3cccc(C#N)c3F)cccn2c1N [Example 57, 3-Amino-8-(3-cyano-2-fluorophenyl)-N-propylimidazo[1,2-a]pyridine-2-carboxamide] |  | 
23 | 140% | 5.7 nM | CCCNC(=O)c1nc2c(-c3cc(C#N)ccc3OC)cccn2c1N [Example 60, 3-Amino-8-(5-cyano-2-methoxyphenyl)-N-propylimidazo[1,2-a]pyridine-2-carboxamide] |  | 
24 | 192% | 5.29 nM | CCCNC(=O)c1nc2c(-c3cc(Cl)ccc3OC)cccn2c1N [Example 62, 3-Amino-8-(5-chloro-2-methoxyphenyl)-N-propylimidazo[1,2-a]pyridine-2-carboxamide] |  | 
25 | 71% | 10.2 nM | CCCNC(=O)c1nc2c(-c3cccc(OC)c3F)cccn2c1N [Example 63, 3-Amino-8-(2-fluoro-3-methoxyphenyl)-N-propylimidazo[1,2-a]pyridine-2-carboxamide] |  | 
26 | 93% | 3.37 nM | CCCNC(=O)c1nc2c(-c3cccc(C)c3F)cccn2c1N [Example 64, 3-Amino-8-(2-fluoro-3-methylphenyl)-N-propylimidazo[1,2-a]pyridine-2-carboxamide] |  | 
27 | 130% | 7.43 nM | CCCNC(=O)c1nc2c(-c3cc(-c4cnnc5c4ncn5CC)ccc3OC)cccn2c1N [Example 71, 3-Amino-8-(5-(7-ethyl-7H-imidazo[4,5-c]pyridazin-4-yl)-2-methoxyphenyl)-N-propylimidazo[1,2-a]pyridine-2-carboxamide] |  | 
